# Values quoted from earlier work, collected in patent US6750064B2, “Methods of screening for possible solid forms” (S.S.C.I. Inc., priority 2000, dated 2004).
# Settings: two hours after the drug was administered
row,concentration of novobiocin in dog plasma,Structure (SMILES)
1,no drug detectable,"CO[C@@H]1[C@@H](OC(N)=O)[C@@H](O)[C@H](Oc2ccc3c(O)c(NC(=O)c4ccc(O)c(CC=C(C)C)c4)c(=O)oc3c2C)OC1(C)C [crystalline novobiocin, novobiocin]"
2,29.3 µg/mL,"CO[C@@H]1[C@@H](OC(N)=O)[C@@H](O)[C@H](Oc2ccc3c(O)c(NC(=O)c4ccc(O)c(CC=C(C)C)c4)c(=O)oc3c2C)OC1(C)C [novobiocin amorphous form, novobiocin]"
